Assays:
[1] = system: rat ischemic acute renal injury model with unilateral nephrectomy; assay: Rat ischemic acute renal injury model with unilateral nephrectomy; type: in vivo; settings: 200 mg/kg GSSSG intraperitoneal once a day x4 (day -4 to -1) before 40 min ischemia/reperfusion, versus control group
Description: GSSSG dihydrate produced by the method described in Patent Literature 1 was carefully crushed in a mortar for 10 minutes or longer. 1,333 mg (1,250 mg in terms of anhydride) of GSSSG dihydrate was weighed out. 1,333 mg of the crushed GSSSG dihydrate was added to 40 mL of a normal saline, and the mixture was stirred in a suspended state for 5 minutes. 0.25 to 0.50 g of sodium bicarbonate was added to the suspension and dissolved. This GSSSG solution was transferred to a measuring cylinder, and a normal saline was added to make up 50 mL to obtain a preparation solution (final concentration: 25 mg/mL). The obtained preparation solution was filtered with a filter (0.22 μm filter) and used as an administration sample.
In the test, 4-week old male SD rats (body weight 99 to 113 g)
were used. A 16-day preliminary breeding period was set for the obtained animals. Rats with no abnormalities in body weight change and general condition were used for grouping.
One kidney was removed from rats in which no abnormalities were observed after the preliminary breeding period by the following method. […]
The administration sample was administered into the peritoneal cavity of rats from which the right kidney was removed using a disposable polypropylene syringe with an injection needle. […] The amount of solution administered was calculated at 8 mL/kg based on the body weight on the first day of administration. […]

[2] = system: rat bilateral kidney simultaneous ligation ischemic acute renal injury model; assay: Rat bilateral kidney simultaneous ligation ischemic acute renal injury model; type: in vivo; settings: for Blood creatinine (CRE), before administration / Blood urea nitrogen (UN), before administration: baseline, day before administration; for Blood creatinine (CRE), before administration / Blood urea nitrogen (UN), before administration / GDF-15 (growth differentiation factor), 48 hours after ischemia reperfusion / Blood creatinine (CRE), 48 hours after ischemia reperfusion / Blood urea nitrogen (UN), 48 hours after ischemia reperfusion: plasma; for GDF-15 (growth differentiation factor), 48 hours after ischemia reperfusion: ELISA, control 1532 ± 246, placebo surgery 75.2 ± 4.3; for Blood creatinine (CRE), 48 hours after ischemia reperfusion: control 2.98 ± 0.56, placebo surgery 0.24 ± 0.01; for Blood urea nitrogen (UN), 48 hours after ischemia reperfusion: control 154.6 ± 19.5, placebo surgery 14.4 ± 1.1
Description: GSSSG dihydrate produced by the method described in Patent Literature 1 was carefully crushed in a mortar for 10 minutes or longer. A required amount of GSSSG dihydrate was weighed out. 0.5 w/v % methylcellulose (hereinafter abbreviated to as MC) was added to the crushed GSSSG dihydrate to prepare a suspension at a concentration of 10 mg/mL, and used as an administration sample for a high-dose administration group. The 10 mg/mL suspension was diluted with 0.5 w/v % MC to prepare a 4 mg/mL suspension, and used as an administration sample for a low-dose administration group.
In the test, 5-week old male SD rats (body weight 136 to 154 g) were used. An 8-day preliminary breeding period was set for the obtained animals. Rats with no abnormalities in body weight change and general condition were used for grouping.
The administration method was oral administration. Forced oral administration was performed using a disposable polypropylene syringe with a metal oral gavage tube for rats. The amount of solution administered was 5 ml/kg for both the high dose group and the low dose group based on the body weight closest to that of the day of administration. Administration was performed a total of 5 times: 1 day before, 2 days before, and 3 days before the ischemia treatment was performed, 1 hour before the ischemia treatment, and 2 hours after the reperfusion treatment.
The ischemia and reperfusion treatments were performed as follows. Anesthesia was performed by intraperitoneal administration of 45 mg/kg (1 mL/kg) of pentobarbital sodium and subcutaneous administration of 1 mg/kg (1 mL/kg) of butorphanol tartrate. Both dorsal parts where the kidneys were located were shaved. Then, the animals were treated on a heater mat. The surgical site was disinfected with about 70% of an alcohol and then incised using scissors. After both kidneys of the animals in Group 2 to Group 4 in Table 3 were exposed, the renal arteries and veins of the left kidney and the right kidney in order were clamped using Klemme (clip power 120 g) for 40 minutes. During clamping, the kidney was returned to the body in order to prevent kidney desiccation. During reperfusion, it was confirmed that the blood color of the kidney was returned to normal (red), and the laparotomy wound was closed and disinfected with Isodine. In the animals of the Group 1, both kidneys were exposed, and returned to the peritoneal cavity without ischemia treatment, and the laparotomy wound was closed and disinfected with Isodine 40 minutes after incision. After suturing, the rats were returned to the original breeding cage.
On the day before administration, without anesthesia, about 0.25 mL of blood was collected from the tail vein using a heparin Na-treated capillary (DRUMMOND). The collected blood was cooled on ice and then separated using a centrifuge (4° C., 2,200×g, for 15 minutes), and the UN concentration and the CRE concentration were measured using the obtained plasma.
48 hours after the reperfusion treatment, under isoflurane anesthesia, all blood was collected from abdominal aorta, using a winged injection needle and a heparin Na-treated vacuum blood collection tube. The collected blood was cooled on ice and then separated using a centrifuge (4° C., 2,150×g, for 15 minutes), and UN, CRE and GDF-15 (Mouse/Rat GDF-15 Quantikine ELISA Kit, R&D Systems, Inc) were measured using the obtained plasma.

Compound: N[C@@H](CCC(=O)N[C@@H](CSSSC[C@H](NC(=O)CC[C@H](N)C(=O)O)C(=O)NCC(=O)O)C(=O)NCC(=O)O)C(=O)O [GSSSG, glutathione trisulfide]
- UN value (urea nitrogen concentration in plasma) ([1]; FIG. 1): decreased
- CRE value (creatinine concentration in plasma) ([1]; FIG. 2): decreased
- Blood creatinine (CRE), before administration ([2]; 20 mg/kg oral group): 0.21 ± 0.00 mg/dL
- Blood urea nitrogen (UN), before administration ([2]; 20 mg/kg oral group): 13.5 ± 0.5 mg/dL
- GDF-15 (growth differentiation factor), 48 hours after ischemia reperfusion ([2]; 20 mg/kg oral x5): 1673 ± 595 pg/mL
- Blood creatinine (CRE), 48 hours after ischemia reperfusion ([2]; 20 mg/kg oral x5): 2.29 ± 0.52 mg/dL
- Blood urea nitrogen (UN), 48 hours after ischemia reperfusion ([2]; 20 mg/kg oral x5): 136.8 ± 24.6 mg/dL
- therapeutic effect ([2]; 50 mg/kg oral administration group): a therapeutic effect was exhibited
- GDF-15 concentration, change versus control group ([2]; 50 mg/kg oral group, 48 hours after reperfusion): slightly decreased
- Blood creatinine (CRE), before administration ([2]; 50 mg/kg oral group): 0.20 ± 0.00 mg/dL
- Blood urea nitrogen (UN), before administration ([2]; 50 mg/kg oral group): 11.5 ± 0.4 mg/dL
- GDF-15 (growth differentiation factor), 48 hours after ischemia reperfusion ([2]; 50 mg/kg oral x5): 1327 ± 300 pg/mL
- Blood creatinine (CRE), 48 hours after ischemia reperfusion ([2]; 50 mg/kg oral x5): 2.07 ± 0.45 mg/dL
- Blood urea nitrogen (UN), 48 hours after ischemia reperfusion ([2]; 50 mg/kg oral x5): 106.2 ± 16.5 mg/dL
- UN value, change versus control group ([2]; GSSSG administration group, 20 and 50 mg/kg oral, 48 hours after reperfusion, Table 5): decreased in a dose-dependent manner
- CRE value, change versus control group ([2]; GSSSG administration group, 20 and 50 mg/kg oral, 48 hours after reperfusion, Table 6): decreased in a dose-dependent manner

Reference: patent US20240269223A1, “PROPHYLACTIC OR THERAPEUTIC AGENT FOR ACUTE RENAL FAILURE” (KYOWA HAKKO BIO CO., LTD., priority 2021, published 2024)
